From patent publication US6835747B1, “Ft-0554a substances and process for the preparation thereof” (The Kitasato Institute, priority 2003, dated 2004) come the findings set out here.

Each structure is given as a SMILES string. “Also recorded” adds a separate entry of the source.

One series addresses NADH-fumarate reductase (Ascaris suum, UniProt P24875). The experiment in a line: NADH-fumarate reductase inhibitory activity, Ascaris suum mitochondrial fraction, NADH absorption at 340 nm. Type of series: biochemical. On the procedure: NADH-fumarate reductase inhibitory activity of FT-0554A substance of the present invention is explained as follows.
Muscles of Ascaris suum were homogenized in 120 mM sodium phosphate solution (pH 7.0) and centrifuged at 3000×g for 10 minutes to collect the supernatant solution. The supernatant was further centrifuged at 10000×g for 20 minutes to collect the precipitate. The precipitate was suspended in 120 mM sodium phosphate solution (pH 7.0) to obtain mitochondorial fraction.
After 10 μl of test sample dissolved in 50% dimethyl sulfoxide solution was added into 96 wells microplate, 80 μl of 120 mM sodium phosphate solution (pH 7.0) containing 0.35 mM NADH, 7.2 mM disodium fumarate and 18 mg/ml bovine serum albumin was added thereto, and pre-incubated in the microplate reader ELX808 (Bio-Teck Industries Co.) at 37° C. for 5 minutes. Mithochondrial fraction of Ascaris suum 10 μl (protein content 0.3 mg) was added therein and incubated at 37° C. for 10 minutes. Absorption of NADH at 340 nm was measured every 15 seconds.
As a result of quantitative measurement of NADH-fumarate reductase activity shown by decrease in the slope of absorbancy at 340 nm, 50% inhibition of NADH-fumarate reductase activity were obtained at 0.4 μM of FT-0554A substance. Consequently, FT-0554A substance can be expected to use as drug for treatment or prevention of helminthiasis.

The next series can be described thus: Solubility in solvent. Type of series: physicochemical.

As to `CCC(C)/C=C/C=C(\C)CC(C)/C=C/C=C/C1OC(=O)C(O)C2OC12C` (stereo not shown) [FT-0554 substance, reference compound], the “NADH-fumarate reductase inhibitory activity (in words)” value on NADH-fumarate reductase is “had NADH-fumarate reductase inhibitory activity”.
Regarding `CCC(C)/C=C/C=C(\C)CC(C)/C=C/C=C/C(O)C1(C)C=C(O)C(=O)O1` (stereo not shown) [FT-0554A substance], the “NADH-fumarate reductase inhibitory activity (in words)” value at NADH-fumarate reductase is “equivalent level of inhibitory activity”. Further, the Solubility in solvent entry in the series “Solubility in solvent” (chloroform and ethyl acetate) was “soluble”; in “Solubility in solvent” (water and n-hexane), “insoluble; also recorded: hardly soluble”.
